Test results from ChEMBL document CHEMBL3392985, “Dithiocarbamate-thiourea hybrids useful as vaginal microbicides also show reverse transcriptase inhibition: design, synthesis, docking and pharmacokinetic studies” (Bioorg Med Chem Lett, 2015).
In brackets after ≈: the same amount, converted by molar mass.

Experiments:
Trichomonas vaginalis = experiment: Antimicrobial activity against Trichomonas vaginalis after 3 to 48 hrs by trypan blue exclusion assay; assay type: functional
[1] = Spermicidal activity against human sperm by microscopic analysis; assay type: functional
[2] = molecular target: Human immunodeficiency virus type 1 reverse transcriptase (Human immunodeficiency virus 1) (UniProt Q72547); experiment: Inhibition of HIV-1 reverse transcriptase using digoxigenin/biotin-labeled dUTP as substrate at 100 ug/ml incubated for 1 hr followed by compound washout measured after 1 hr by non-radioactive ELISA relative to control
Homo sapiens = species: Homo sapiens; experiment: Ratio of nonoxynol-9 MEC to compound MEC for human sperm; assay type: functional
HeLa = experiment: Cytotoxicity against human HeLa cells assessed as cell viability at 200 ug/ml after 24 hrs by lactate dehydrogenase release assay; assay type: cell-based
[3] = Toxicity against Lactobacillus acidophilus at 200 ug/ml after 24 hrs
[4] = Stability of the compound in simulated vaginal fluid at 100 ng/ml at pH 2 up to 1 hr by LC/MS/MS analysis; assay type: ADME; conditions: buffer, pH 2, 1 h
[5] = Cmax in rabbit administered administered intravaginally after 1 hr; assay type: ADME, organism-based, Oryctolagus cuniculus; conditions: in vivo
[6] = Terminal half life in rabbit administered intravaginally after 1 hr; assay type: ADME, organism-based, Oryctolagus cuniculus; conditions: in vivo, read-out: beta t1/2 (converted)

| MIC (Trichomonas vaginalis) [µg/mL] | inhibition [2] [%] | Stability [4] | SMILES | MEC [1] [%] | Ratio (Homo sapiens) | Activity (HeLa) | Activity [3] | Cmax [5] [ng/mL] | half-life [6] [h] |
| --- | --- | --- | --- | --- | --- | --- | --- | --- | --- |
| 15.6 (≈ 35.5 µM) | 41.3 | Stable | CCCCCCCCSC(=S)N1CCN(C(=S)NC(=O)c2ccccc2)CC1 | 0.025 | 2 | Non-toxic | Non-toxic |  |  |
| 250 (≈ 680 µM) | 28.4 |  | CCCSC(=S)N1CCN(C(=S)NCCc2ccccc2)CC1 | >2 |  |  |  |  |  |
| 125 (≈ 367 µM) | 35.4 |  | CCCSC(=S)N1CCN(C(=S)Nc2cccnc2)CC1 | 0.5 |  |  |  |  |  |
| 125 (≈ 328 µM) | 27.8 |  | CCCCSC(=S)N1CCN(C(=S)NC(=O)c2ccccc2)CC1 | 1 |  |  |  |  |  |
| 500 (≈ 1360 µM) | 14.2 |  | CCCCSC(=S)N1CCN(C(=S)NCc2ccccc2)CC1 | >2 |  |  |  |  |  |
| 62.5 (≈ 170 µM) | 31.4 |  | CCCSC(=S)N1CCN(C(=S)NC(=O)c2ccccc2)CC1 | 0.025 | 2 | Non-toxic | Non-toxic |  |  |
| > 500 | 25.8 |  | S=C(Nc1cccnc1)N1CCN(C(=S)SCc2ccccc2)CC1 | 2 |  |  |  |  |  |
| 250 (≈ 655 µM) | 13.5 |  | CCCCSC(=S)N1CCN(C(=S)NCCc2ccccc2)CC1 | >2 |  |  |  |  |  |
| 62.5 (≈ 152 µM) | 44.7 |  | CCCCCCCCSC(=S)N1CCN(C(=S)Nc2cccnc2)CC1 | 2 |  |  |  |  |  |
| 250 (≈ 705 µM) | 14.9 |  | CCCCSC(=S)N1CCN(C(=S)Nc2cccnc2)CC1 | >2 |  |  |  |  |  |
| 125 (≈ 305 µM) | 24 |  | CCCCCCCCSC(=S)N1CCN(C(=S)Nc2ccccc2)CC1 | 1 |  |  |  |  |  |
| > 500 | 1.9 |  | CCCCCCSC(=S)N1CCN(C(=S)Nc2ccccc2)CC1 | >2 |  |  |  |  |  |
| 250 (≈ 590 µM) | 36.5 |  | CCCCCCCCSC(=S)N1CCN(C(=S)NCc2ccccc2)CC1 | 1 |  |  |  |  |  |
| 125 (≈ 311 µM) | 9.11 |  | S=C(NCc1ccccc1)N1CCN(C(=S)SCc2ccccc2)CC1 | >2 |  |  |  |  |  |
| 62.5 (≈ 150 µM) | 11.8 |  | S=C(NCCc1ccccc1)N1CCN(C(=S)SCc2ccccc2)CC1 | >2 |  |  |  |  |  |
| 125 (≈ 327 µM) | 26.1 |  | CCCCCCSC(=S)N1CCN(C(=S)Nc2cccnc2)CC1 | 0.05 |  | Non-toxic | Non-toxic |  |  |
| 15.6 (≈ 44 µM) | 20.6 |  | CCCSC(=S)N1CCN(C(=S)NCc2ccccc2)CC1 | 1 |  |  |  |  |  |
| 250 (≈ 645 µM) | 21.9 |  | S=C(Nc1ccccc1)N1CCN(C(=S)SCc2ccccc2)CC1 | >2 |  |  |  |  |  |
| 7.78 (≈ 19 µM) | 23.2 |  | CCCCCCSC(=S)N1CCN(C(=S)NC(=O)c2ccccc2)CC1 | 0.05 |  | Non-toxic | Non-toxic |  |  |
| 250 (≈ 632 µM) | 27.3 |  | CCCCCCSC(=S)N1CCN(C(=S)NCc2ccccc2)CC1 | >2 |  |  |  |  |  |
| 500 (≈ 1470 µM) | 21.5 |  | CCCSC(=S)N1CCN(C(=S)Nc2ccccc2)CC1 | >2 |  |  |  |  |  |
| 62.5 (≈ 150 µM) | 12.3 |  | O=C(NC(=S)N1CCN(C(=S)SCc2ccccc2)CC1)c1ccccc1 | 1 |  |  |  |  |  |
| 125 (≈ 354 µM) | 30.9 |  | CCCCSC(=S)N1CCN(C(=S)Nc2ccccc2)CC1 | >2 |  |  |  |  |  |
| 250 (≈ 610 µM) | 14.8 |  | CCCCCCSC(=S)N1CCN(C(=S)NCCc2ccccc2)CC1 | 1 |  |  |  |  |  |
| 250 (≈ 571 µM) | 15.7 |  | CCCCCCCCSC(=S)N1CCN(C(=S)NCCc2ccccc2)CC1 | >2 |  |  |  |  |  |

| SMILES | MIC (Trichomonas vaginalis) [µg/mL] | inhibition [2] [%] | Stability [4] | MEC [1] [%] | Ratio (Homo sapiens) | Activity (HeLa) | Activity [3] | Cmax [5] [ng/mL] | half-life [6] [h] |
| --- | --- | --- | --- | --- | --- | --- | --- | --- | --- |
| CCCCCCCCCc1ccc(OCCOCCOCCOCCOCCOCCOCCOCCOCCO)cc1 [NONOXYNOL 9] | 20 (≈ 32.4 µM) |  |  | 0.05 |  |  |  | 4.87 | 1.45 |
